Columns and labels:
[1] = target: T1, Cholesteryl ester transfer protein (Homo sapiens, UniProt P11597); experiment: Inhibition of full-length human recombinant CETP expressed in CHO cells by BODIPY-CE dye based fluorescence assay; format: cell-based
T1 sequence (P11597 whole entry): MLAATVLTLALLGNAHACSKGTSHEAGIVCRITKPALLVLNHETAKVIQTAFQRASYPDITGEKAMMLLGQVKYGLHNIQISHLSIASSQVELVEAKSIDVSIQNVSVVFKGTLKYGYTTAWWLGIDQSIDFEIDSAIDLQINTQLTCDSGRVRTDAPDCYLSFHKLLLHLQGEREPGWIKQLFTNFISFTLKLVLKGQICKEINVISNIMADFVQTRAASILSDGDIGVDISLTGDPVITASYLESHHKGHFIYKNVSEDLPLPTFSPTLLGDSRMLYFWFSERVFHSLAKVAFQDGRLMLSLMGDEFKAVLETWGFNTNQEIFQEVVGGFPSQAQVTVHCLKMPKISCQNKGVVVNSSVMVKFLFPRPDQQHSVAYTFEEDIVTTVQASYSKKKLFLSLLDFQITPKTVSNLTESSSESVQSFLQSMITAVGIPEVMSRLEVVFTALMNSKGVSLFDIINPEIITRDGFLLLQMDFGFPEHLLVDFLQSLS

CYP450 [2] = experiment: Drug metabolism in KM rat liver microsomes assessed as CYP450 mediated compound reduction at 100 uM after 17.1 min by LC-MS/MS analysis in presence of NADPH; format: ADME; conditions: read-out: Drug metabolism
Syrian golden hamster [3] = experiment: Decrease in LDL-cholesterol level in high cholesterol/lipid diet fed golden syrian hamster at 50 mg/kg/day, po for 4 weeks; format: functional; conditions: Mesocricetus auratus, 672 h
Syrian golden hamster [4] = experiment: Decrease in LDL-cholesterol level in high cholesterol/lipid diet fed po dosed golden syrian hamster administered daily for 4 weeks; format: functional, organism-based; conditions: Mesocricetus auratus
Syrian golden hamster [5] = experiment: Increase in HDL-cholesterol level in high cholesterol/lipid diet fed golden syrian hamster at 20 mg/kg/day, po for 4 weeks; format: functional, Mesocricetus auratus
Syrian golden hamster [6] = experiment: Toxicity in golden syrian hamster assessed as mortality at 20 to 100 mg/kg/day, po for 4 weeks; format: organism-based, Mesocricetus auratus; conditions: in vivo, 672 h
Syrian golden hamster [7] = experiment: Increase in HDL-cholesterol level in high cholesterol/lipid diet fed golden syrian hamster at 100 mg/kg/day, po for 4 weeks; format: functional, Mesocricetus auratus
Syrian golden hamster [8] = experiment: Increase in HDL-cholesterol level in high cholesterol/lipid diet fed golden syrian hamster at 50 mg/kg/day, po for 4 weeks; format: functional, Mesocricetus auratus
CYP450 [9] = experiment: Drug metabolism in KM rat liver microsomes assessed as CYP450 mediated compound oxidation at 100 uM after 17.1 min by LC-MS/MS analysis in presence of NADPH; format: ADME; conditions: read-out: Drug metabolism
Syrian golden hamster [10] = experiment: Decrease in LDL-cholesterol level in high cholesterol/lipid diet fed golden syrian hamster at 20 mg/kg/day, po for 4 weeks; format: functional; conditions: Mesocricetus auratus, 672 h
Syrian golden hamster [11] = experiment: Increase in HDL-cholesterol level in high cholesterol/lipid diet fed po dosed golden syrian hamster administered daily for 4 weeks; format: functional, organism-based; conditions: Mesocricetus auratus
Syrian golden hamster [12] = experiment: Decrease in LDL-cholesterol level in high cholesterol/lipid diet fed golden syrian hamster at 100 mg/kg/day, po for 4 weeks; format: functional; conditions: Mesocricetus auratus, 672 h

| SMILES | IC50 [1] [µM] | other results |
| --- | --- | --- |
| CCOC(=O)c1ccc(N2CCN(C(=O)CCN(Cc3ccc(F)cc3)c3cccc(Oc4ccccc4)c3)CC2)cc1 | 0.69 |  |
| CCOC(=O)c1ccc(NC(=O)CCN(c2cccc(Oc3ccccc3)c2)S(=O)(=O)c2ccc(F)cc2)cc1 | 0.15 | metabolised at 0.285 h, 100 µM (CYP450 [2]): 36%; inhibition in vivo at 50 mg/kg/day (Syrian golden hamster [3]): 36.2%; inhibition (Syrian golden hamster [4]): Dose-dependent effect; Activity (Syrian golden hamster [5]): 16.2%; Activity (Syrian golden hamster [6]): Non-toxic; Activity (Syrian golden hamster [7]): 48.2%; Activity (Syrian golden hamster [8]): 34.7%; metabolised at 0.285 h, 100 µM (CYP450 [9]): 36%; inhibition in vivo at 20 mg/kg/day (Syrian golden hamster [10]): 19.3%; Activity (Syrian golden hamster [11]): Dose-dependent effect; inhibition in vivo at 100 mg/kg/day (Syrian golden hamster [12]): 45.8% |
| CCOC(=O)c1ccc(NC(=O)CCN(Cc2cc(C(F)(F)F)cc(C(F)(F)F)c2)c2ccc(Cl)c(Cl)c2)cc1 | 5.4 |  |
| CCOC(=O)c1ccc(N2CCN(C(=O)CCN(Cc3ccc(F)cc3)c3ccc(Oc4ccccc4)cc3)CC2)cc1 | 6.7 |  |
| CCOC(=O)c1ccc(N2CCN(C(=O)CCN(Cc3ccc(F)cc3)c3ccc(Cl)c(Cl)c3)CC2)cc1 | 12.4 |  |
| CCOC(=O)c1ccc(NC(=O)CCN(Cc2ccc(C(F)(F)F)cc2)c2ccc(Cl)c(Cl)c2)cc1 | 9.5 |  |
| COc1ccc(N2CCN(C(=O)CCN(Cc3ccc(F)cc3)c3ccc(Cl)c(Cl)c3)CC2)cc1 | 4.9 |  |
| CCOC(=O)c1ccc(N2CCN(C(=O)CCN(Cc3ccc(C(F)(F)F)cc3)c3ccc(Cl)c(Cl)c3)CC2)cc1 | 18.2 |  |
| COc1ccc(N2CCN(C(=O)CCN(Cc3ccc(F)cc3)c3ccc(Oc4ccccc4)cc3)CC2)cc1 | > 50 |  |

More lines, main results first:

| IC50 [1] [µM] | SMILES | other results |
| --- | --- | --- |
| 2.3 | CCOC(=O)c1ccc(NC(=O)CCN(c2cc(Cl)cc(-c3ccccc3)c2)S(=O)(=O)c2ccc(F)cc2)cc1 |  |
| 1.3 | CCOC(=O)c1ccc(NC(=O)CCN(c2ccc(Cl)c(-c3ccccc3)c2)S(=O)(=O)c2ccc(F)cc2)cc1 |  |
| 2.9 | CCOC(=O)c1ccc(N2CCN(C(=O)CCN(Cc3ccc(F)cc3)c3ccc(Cl)c(-c4ccccc4)c3)CC2)cc1 |  |
| 16.7 | CCOC(=O)c1ccc(NC(=O)CCN(Cc2ccc(F)cc2)c2ccc(-c3ccccc3)cc2)cc1 |  |
| 2.7 | CCOC(=O)c1ccc(NC(=O)CCN(Cc2ccc(F)cc2)c2ccc(Cl)c(-c3ccccc3)c2)cc1 |  |
| 9.1 | O=C(CCN(Cc1ccc(F)cc1)c1ccc(Cl)c(Cl)c1)Nc1ccc(C(=O)O)cc1 |  |
| 2 | CCOC(=O)c1ccc(NC(=O)CCN(Cc2ccc(F)cc2)c2ccc(Cl)c(Cl)c2)cc1 |  |
| 0.24 | CCOC(=O)c1ccc(NC(=O)CCN(Cc2ccc(F)cc2)c2cccc(Oc3ccccc3)c2)cc1 |  |
| 3.4 | CCOC(=O)c1ccc(NC(=O)CCN(Cc2ccc(F)cc2)c2cc(Cl)cc(-c3ccccc3)c2)cc1 |  |

— ChEMBL document CHEMBL3769402, “Discovery of novel N,N-3-phenyl-3-benzylaminopropionanilides as potent inhibitors of cholesteryl ester transfer protein in vivo” (Bioorg Med Chem, 2016)
